{"source": "paper PMC4649711", "about": "“In1-ghrelin splicing variant is overexpressed in pituitary adenomas and increases their aggressive features” (Scientific Reports, 2015)", "key": {"p-Akt": {"system": "p-Akt", "assay": "Akt phosphorylation by western blot in GH-omas", "assay_type": "cell-based, human", "details": "100 nM, 8 minutes, p-Akt/total Akt vs vehicle (100%), n = 4", "experimental": "(§1) Pituitary adenoma specimens were dispersed into single cells by enzymatic and mechanical disruption and cultured onto tissue culture plates in serum containing medium, as previously described. Briefly, pituitary samples were resected by endoscopic transsphenoidal surgery and transferred to sterile cold (4°C) culture medium (S-MEM, Gibco, Madrid, Spain) supplemented with 0.1% BSA, 0.01% L-glutamine, 1% antibiotic-antimycotic solution, and 2.5% HEPES. Samples were minced under sterile conditions into 1–2 mm^3 pieces. Some pieces were stored at −80°C for posterior RNA isolation and, when possible, the remaining tissue samples were washed and incubated in 30 mL S-MEM medium supplemented 0.3% trypsin (Beckson, Dickinson and Company, Sparks, MD, USA) in a spinner flask (Bellco Glass, Vineland, NJ, USA) for 2 h of gentle shaking at 37°C and then, incubation was continued for another 5 min in presence of 1 mg of DNAse I (Roche, Mannheim, Germany). Dispersed cells were decanted by centrifugation and then, by repeated aspiration into a smoothtipped glass Pasteur pipette. Cells suspensions were washed once in 4.5 g/L glucose containing DMEM medium (Gibco, Madrid, Spain) supplemented with 0.1% BSA, 0.01% L-glutamine, 1% antibiotic-antimycotic solution, and 2.5% HEPES. […]"}, "AtT-20 cell line [1]": {"system": "AtT-20 cell line", "assay": "ACTH secretion from AtT-20 cell line", "assay_type": "cell-based, mouse", "details": "4 h, 3–5 independent experiments", "experimental": "(§2) The mouse corticotroph pituitary derived cell line AtT-20/D16v-F2 (ATCC® CRL-1795) was cultured and maintained in Dulbecco's Modified Eagle's Medium (DMEM) complemented with 10% FBS, 100 U/ml penicillin/streptomycin, 0.024 M of 2-(4(2-hydroxyethyl)-1-piperazine)-ethane sulfonic acid (HEPES), and maintained at 37°C and 5% CO2, under sterile conditions. CHO-K1 cell line(ATCC® CCL-61) expressing recombinant human GHSR1a (GenBank accession number U60179) or GHSR1b (GenBank accession number U60181) were cultured and maintained in Ham's F12 media (Corning #10-080-CV) supplemented with 10% FBS, 2 mM L-Glutamine and 0.4 mg/mL Geneticin.\nTo examine the effects of ghrelin system components (4- and/or 24 h-incubation) on pituitary hormone release from primary pituitary adenoma and/or AtT-20 cell line, 100,000–200,000 cell/well were used. As previously reported, hormone concentrations were measured in the culture media derived from human samples according to the pituitary adenoma type using commercial ELISAs [growth hormone, GH; adrenocorticotropin, ACTH; and prolactin, PRL (reference numbers: EIA-3552, EIA-3647 and EIA-1291, respectively; DRG, Mountainside, NJ, USA)] following the manufacturer's instructions. All the information regarding specificity, detectability, and reproducibility for each of the assays can be accessed at the web site of the company."}, "NFPAs": {"system": "NFPAs", "assay": "cell viability of NFPA primary cultures, peptide treatment", "assay_type": "cell-based, human", "details": "100 nM, alamar-blue, n = 3–15", "experimental": "as §1, with “pipette.” for “pipette. Cells suspensions were washed once in 4.5 g/L glucose containing DMEM medium (Gibco, Madrid, Spain) supplemented with 0.1% BSA, 0.01% L-glutamine, 1% antibiotic-antimycotic solution, and 2.5% HEPES.”\n(§3) As previously reported, cell viability was estimated using alamar-blue reagent (10,000 cells/well-plate; Biosource International, Camarillo, CA, USA)[30][50][52]. […] Reduction of alamar-blue reagent was quantified exciting at 560 nm and reading at 590 nm using the FlexStation III system (Molecular Devices, Sunnyvale, CA, USA). […]"}, "AtT-20 cell line [2]": {"system": "AtT-20 cell line", "assay": "cell viability of AtT-20 cell line", "assay_type": "cell-based, mouse", "details": "alamar-blue, 3–5 independent experiments, IGF-1 and Paclitaxel as controls", "experimental": "as §2\nAs previously reported, cell viability was estimated using alamar-blue reagent (10,000 cells/well-plate; Biosource International, Camarillo, CA, USA)[30][50][52]. Briefly, cells were serum-starved for 12–16 h before the measurements and treated with serum-free medium containing 10% alamar-blue for 3 h. Reduction of alamar-blue reagent was quantified exciting at 560 nm and reading at 590 nm using the FlexStation III system (Molecular Devices, Sunnyvale, CA, USA). Subsequently, media was replaced by serum-containing alamar-blue free medium and incubated for additional 24–72 h, measuring the alamar-blue reduction every 24 h. […]"}, "pituitary adenoma cells": {"system": "pituitary adenoma cells", "assay": "cell viability in all pituitary adenoma subtypes, peptide treatment", "assay_type": "cell-based, human", "details": "100 nM, 24-, 48- and/or 72-h, alamar-blue", "experimental": "as §1, with “pipette.” for “pipette. Cells suspensions were washed once in 4.5 g/L glucose containing DMEM medium (Gibco, Madrid, Spain) supplemented with 0.1% BSA, 0.01% L-glutamine, 1% antibiotic-antimycotic solution, and 2.5% HEPES.”\nas §3"}, "PRL-omas": {"system": "PRL-omas", "details": "previous studies; cited from earlier work", "from_the_text": "Conversely, In1-ghrelin peptides only elicited [Ca^2+]i responses in a negligible percentage of PRL-oma cells, which is in accordance with the lack of effect of these peptides in the modulation of PRL release. However, In1-40 but not In1-19 p ..."}}, "note": "“Also recorded” adds a separate entry of the source.", "data": [{"smiles": "CCCCCCCC(=O)OC[C@H](NC(=O)[C@H](CO)NC(=O)CN)C(=O)N[C@@H](Cc1ccccc1)C(=O)N[C@@H](CC(C)C)C(=O)N[C@@H](CO)C(=O)N1CCC[C@H]1C(=O)N[C@@H](CCC(=O)O)C(=O)N[C@@H](Cc1c[nH]cn1)C(=O)N[C@@H](CCC(N)=O)C(=O)N[C@@H](CCCNC(=N)N)C(=O)N[C@H](C(=O)N[C@@H](CCC(N)=O)C(=O)N[C@@H](CCC(N)=O)C(=O)N[C@@H](CCCNC(=N)N)C(=O)N[C@@H](CCCCN)C(=O)N[C@@H](CCC(=O)O)C(=O)N[C@@H](CO)C(=O)N[C@@H](CCCCN)C(=O)N[C@@H](CCCCN)C(=O)N1CCC[C@H]1C(=O)N1CCC[C@H]1C(=O)N[C@@H](C)C(=O)N[C@@H](CCCCN)C(=O)N[C@@H](CC(C)C)C(=O)N[C@@H](CCC(N)=O)C(=O)N1CCC[C@H]1C(=O)N[C@@H](CCCNC(=N)N)C(=O)O)C(C)C", "note": "[AG]", "values": [{"measurement": "p-Akt levels", "setting": "p-Akt", "value": "increased both, p-ERK1/2 as well as p-Akt, levels"}, {"measurement": "basal ACTH release", "setting": "AtT-20 cell line [1]", "value": "did not significantly alter basal ACTH release"}, {"measurement": "cell viability", "setting": "NFPAs; 24 h", "value": "reaching significant levels"}, {"measurement": "cell viability", "setting": "NFPAs; time not specified in text (24-, 48- and/or 72-h)", "value": "modest but consistent increments in cell viability; also recorded: increased NFPA cells viability"}, {"measurement": "cell viability", "setting": "AtT-20 cell line [2]", "value": "did not alter cell viability"}, {"measurement": "cell viability", "setting": "pituitary adenoma cells", "value": "increased cell viability in vitro in all pituitary adenoma subtypes"}, {"measurement": "PRL secretion", "setting": "PRL-omas", "value": "increases PRL secretion"}]}]}
